Measurements reported in patent publication US11998549B2, “Methods of treating a vascular leakage-associated disease or disorder” (UNITY HEALTH TORONTO, priority 2019, dated 2024).
Entries after “also recorded” stand apart in the source; their conditions may differ.

Key:
[1] = system: LPS-induced ROS production; experiment: ROS production (DCFH-DA) in LPS-treated zebrafish larvae; type: in vivo; settings: LPS 100 μg/ml + 1 μM UNC0642, 5 h
Experimental: ROS production was visualised using 2′, 7′-dichlorodihydrofluorescein diacetate (DCFH-DA; Sigma-Aldrich), a ROS indicator. Wildtype zebrafish were exposed to Vehicle, LPS (100 μg/ml) or LPS+1 μM UNC0642 by static immersion for 5 h at 28.5° C. and then incubated along with 100 μM DCFH-DA for 1 h at 28.5° C. in the dark, and washed three times (5 min each) with embryo water. DCFH-DA diffuses into cells and is deacetylated by cellular esterases to non-fluorescent 2′, 7′-Dichlorodihydrofluorescin (DCFH), which is rapidly oxidized to highly fluorescent 2′, 7′-Dichlorofluorescein (DCF) by ROS. The fluorescence intensity is propor-tional to the ROS levels within the cell cytosol. Photographs were acquired using a Leica DFC 300-FX camera and a Leica fluorescence microscope, and were processed with Fiji analysis software. Corrected total fluorescence (CTF) was calculated using the following formula: CTF=Integrated density−(Area of selected cell×Mean fluorescence of background readings) H3K9me2 Immunofluorescence Analysis

[2] = system: CLP-induced protein exudation into the alveolar space; experiment: Mouse CLP model, protein leakage into BALF; type: in vivo; settings: intravenous infusion of 1 mg/kg
Experimental: The CLP model is a well established clinically relevant model for human sepsis (Smeding et al., 2012; Amatullah et al., 2016). Male 8-12 week old C57/B16 mice (Jackson lab) were randomized to CLP or sham surgeries. In anesthetised mice, the cecum was exteriorized, ligated, and perforated. Control animals were exposed to sham surgery, in which the cecum was manipulated, but not ligated or punctured. After surgery, animals received daily fluid resuscitation (subcutaneous (s.c.) 50 ml/kg saline), antibiotic (intraperitoneal (i.p.) imipenem 25 mg/kg) and pain management (s.c. buprenorphine 0.2 mg/kg). Experiments were divided into 2 groups: (1) to assess 7-day survival, and (2) to identify a mechanism of action of a G9a inhibitor in vivo. All experimental mice were randomized and investigators were blinded to group assignment.
Assessment of protective effects of UNC0642 on sepsis-induced vascular leakage: lung injury score and loss of alveolar-capillary membrane integrity with increased albumin and IgM exudation into bronchoalveolar lavage fluid (BALF) was assessed at 24 hrs post treatment.

[3] = system: Beas2b human airway epithelial cells; experiment: TNFα-induced ROS production (DCF assay) in beas2b cells; type: cell-based; settings: TNFα 10 ng/mL, 24 hr
Experimental: Beas2b human airway epithelial cells were grown to 70% confluency. Cells were treated with TNFα (10 ng/mL) or an equal volume of nuclease-free water in the presence of 0, 0.25, 2.5, or 25 nM of UNC0642. Cell lysates were collected in 1×PBS after 24 hr and freeze-thawed twice to lyse the cells completely. In vitro ROS was measured using OxiSelect In Vitro ROS/RNS Assay Kit with DCF standard. ROS (nM) was calculated from the standard curve and values were normalized by total amount of protein (as measured by Bradford assay). Values are expressed as mean+/−SEM (average of two experimental replicates).

H3K9me2 in HPMECs = experiment: H3K9me2 Western blot in LPS-treated HPMECs; type: cell-based, human; settings: LPS 1 ug/ml +/- UNC0642 2.5 nM, 24 hours
[4] = system: human umbilical vein endothelial cells (HUVECs); experiment: FITC dextran leakage assay in HUVEC monolayer; type: cell-based; settings: HUVEC on transwell, LPS 1 μg/ml + UNC0642 2.5 nM
Experimental: (§1) To determine the functional significance of G9a inhibition in human cells, solute permeability and electrical resistance across a confluent HUVEC monolayer was assessed. For both experiments, HUVEC were seeded at 1×10^6 cells/ml on Matrigel™ coated 3-μm pore size transwell inserts in 24-well plates from BD Discovery Labware™ (catalog number 354575) and grown to confluency. The cells were then treated with either the vehicle, LPS (1 μg/ml) or LPS (1 μg/ml)+UNC0642 (2.5 nM).
Assessment of Paracellular Permeability: Dextran sulfate-FITC (3 kD, Invitrogen™ Molecular Probes catalog number D-3306) was added to the lower chamber to a final concentration of 10 μg/ml. Simultaneously, the different treatment conditions mentioned above were added to the lower chamber. FITC fluorescence was measured at different time intervals (0 h, 1.5 h, 2.5 h, 24 h) in samples taken from the top chamber as a measure of paracellular dextran leak. […] (FIG. 11, Panel A)

HUVEC monolayer = experiment: Trans-endothelial electrical resistance (TEER) across HUVEC monolayer; type: cell-based, human; settings: LPS 1 μg/ml + UNC0642 2.5 nM, 24 h post treatment
Experimental: as §1
Assessment of trans-endothelial electrical resistance (TEER): At 24 h post treatment, trans endothelial electrical resistance across the HUVEC monolayer was measured using the Endohm-12 (WPI, Florida). UNC0642 improves transendothelial electrical resistance (TEER) which is also an indicator of vessel integrity and stability. (FIG. 11, Panel B)

COc1cc2c(NC3CCN(C(C)C)CC3)nc(N3CCC(F)(F)CC3)nc2cc1OCCCN1CCCC1 [UNC0642, 2-(4,4-Difluoropiperidin-1-yl)-6-methoxy-N-[1-(propan-2-yl)piperidin-4-yl]-7-(3-(pyrrolidin-1-yl)propoxy]quinazolin-4-amine]
Reduction of LPS-induced ROS production [1]: 40%
Protein exudation into the alveolar space (total alveolar protein in the BALF) [2]: reduced protein exudation
TNFα-induced increased ROS production [3]: significantly lowered
H3K9me2 by Western Blot (H3K9me2 in HPMECs): decreased H3K9me2; also recorded: reduction in this H3K9me2
LPS induced vessel permeability (FITC dextran leakage) [4]: protects against LPS induced vessel permeability
Transendothelial electrical resistance (TEER) (HUVEC monolayer): improves
